{"source": "patent US6207683A", "about": "“Benzocycloheptathiophene compounds” (Bridge Pharma, Inc., priority 1999, dated 2001)", "key": {"[1]": {"target": "T1, histamine H1 -receptors (membranes from bovine cerebellum) (Bos taurus, UniProt P30546)", "T1 construct": "membranes from bovine cerebellum; from tissue; host or cells: bovine cerebellum membranes", "T1 sequence (P30546 whole entry)": "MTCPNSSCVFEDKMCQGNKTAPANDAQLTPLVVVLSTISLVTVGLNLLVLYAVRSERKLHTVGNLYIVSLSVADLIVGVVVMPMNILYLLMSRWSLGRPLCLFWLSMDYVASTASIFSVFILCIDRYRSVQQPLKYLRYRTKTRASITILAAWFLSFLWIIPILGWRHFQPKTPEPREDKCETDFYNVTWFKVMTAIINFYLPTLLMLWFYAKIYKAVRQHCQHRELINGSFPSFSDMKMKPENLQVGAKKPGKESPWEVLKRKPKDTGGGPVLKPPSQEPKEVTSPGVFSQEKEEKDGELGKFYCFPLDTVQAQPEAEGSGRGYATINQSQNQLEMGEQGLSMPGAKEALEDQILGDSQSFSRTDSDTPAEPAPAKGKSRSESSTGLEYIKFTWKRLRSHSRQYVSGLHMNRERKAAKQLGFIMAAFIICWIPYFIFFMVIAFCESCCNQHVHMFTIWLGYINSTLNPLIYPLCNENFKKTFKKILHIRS", "test": "[^3 H]pyrilamine binding assay, histamine H1-receptors", "method": "1. Binding to histaminergic receptors\nThe affinities of the test compounds for histamine H1 -receptors were assessed using the [^3 H]pyrilamine binding assay, modified after Chang et al. Heterogeneity of Histamine H1 -Receptors. J. Neurochem. 1979, 32: 1653-1663 Briefly, membranes from bovine cerebellum were incubated with [^3 H]pyrilamine and the test compound at increasing concentrations. The specific binding of the radioactive ligand to the receptor was defined as the difference between total binding and nonspecific binding, determined in the presence of an excess of unlabelled ligand. IC50 values (concentration required to inhibit 50% of specific binding of [^3 H]pyrilamine) were determined by non linear regression analysis of the competition curves."}, "[2]": {"target": "T2, muscarinic M1 -receptors (bovine striatal membranes) (Bos taurus, UniProt F1N5C5)", "T2 sequence (F1N5C5 1-460)": "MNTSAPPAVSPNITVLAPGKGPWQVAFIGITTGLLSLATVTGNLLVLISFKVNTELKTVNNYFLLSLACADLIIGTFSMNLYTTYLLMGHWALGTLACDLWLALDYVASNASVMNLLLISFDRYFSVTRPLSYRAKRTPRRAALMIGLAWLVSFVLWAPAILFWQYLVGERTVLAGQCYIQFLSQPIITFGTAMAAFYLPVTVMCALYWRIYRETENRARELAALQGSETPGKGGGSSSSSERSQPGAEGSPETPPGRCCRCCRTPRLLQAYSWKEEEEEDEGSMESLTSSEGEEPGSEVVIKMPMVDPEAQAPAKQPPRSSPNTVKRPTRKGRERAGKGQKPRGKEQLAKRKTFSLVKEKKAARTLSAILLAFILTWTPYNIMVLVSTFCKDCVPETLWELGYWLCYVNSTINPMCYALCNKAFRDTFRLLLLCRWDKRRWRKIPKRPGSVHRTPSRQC", "test": "biochemical", "format": "binding", "method": "2. Binding to muscarinic receptors\nThe affinities of the test compounds for muscarinic M1 -receptors were assessed using the [^3 H]pirenzepine binding assay, modified after Luthin et al. [^3 H]Pirenzepine and [^3 H]QNB binding to brain muscarinic cholinergic receptors. Molec. Pharmac. 1984, 26: 164-169. Briefly, the experiments were carried out on bovine striatal membranes expressing muscarinic M1 -receptors. After incubation with the test article and the proper radioligand and washing, bound radioactivity is determined with a […], using a commercial scintillation cocktail. The specific radioligand binding to each receptor is defined as the difference between total binding and nonspecific binding determined in the presence of an excess of unlabelled ligand. IC50 values (concentrations required to inhibit 50% of specific binding) were determined by non linear regression analysis of the competition curves."}, "[3]": {"test_system": "physostigmine-induced lethality", "test": "Physostigmine-induced lethality test (sedative effects)", "format": "in vivo", "settings": "survivors of 10 mice 30 min after physostigmine 1.9 mg/kg s.c.; oral treatment 60 min before, mg/kg: Ketotifen 107, Nor-ketotifen 83, Example 2 94, Example 5 108, Astemizole 115", "method": "3. Studies on sedative effects\nThe physostigmine-induced lethality test used in these tests is a modification of the sedation test technique reported by COLLIER et al., in Br. J. Pharmac., 1968, 32: 295-310. In short, physostigmine (1.9 mg/kg s.c.) produces 100% lethality when given to grouped mice with 10 animals in each plastic cage (approx. 11×26×13 cm). Mice administered a sedating antihistamine prior to physostigmine are protected and survive. In the present study, test compounds were administered orally 60 minutes prior to physostigmine. The number of survivors were counted 30 minutes after physostigmine administration. The doses in the CNS test were half of the molecular weights of the test compounds, expressed in mg/kg body weight."}, "[4]": {"test": "Sedative activity (general statement)", "format": "in vivo", "settings": "statement in words"}, "[5]": {"settings": "inhibition of 50% of specific binding of [^3 H]pyrilamine, bovine cerebellum membranes, read-out: IC50"}, "[6]": {"settings": "inhibition of 50% of specific [^3 H]pirenzepine binding, bovine striatal membranes, read-out: IC50"}}, "note": "Where a name gives a salt, the structure may show the parent alone. Read-outs that look alike come from different tables or passages of the source."}
{"smiles": "Cc1ccc(/C(=C\\CN2CCCC2)c2ccccn2)cc1", "note": "[TRIPROLIDINE HCl]", "values": [{"measurement": "IC50", "setting": "[1]; [5]", "value": 14.1, "unit": "nM"}]}
{"smiles": "CN1[C@@H]2CC[C@H]1C[C@@H](OC(=O)C(CO)c1ccccc1)C2", "note": "(stereo partly drawn) [ATROPINE Sulfate]", "values": [{"measurement": "IC50", "setting": "[2]", "value": 0.574, "unit": "nM"}]}
{"smiles": "O=C(O)COCCN1CCC(=C2c3ccccc3CC(=O)c3sccc32)CC1", "note": "[Example 5]", "values": [{"measurement": "IC50", "setting": "[1]; [5]", "value": 69.5, "unit": "nM"}, {"measurement": "IC50", "setting": "[2]; [6]", "value": 880, "unit": "nM"}, {"measurement": "Survived", "setting": "[3]", "value": "0/10"}]}
{"smiles": "O=C1Cc2ccccc2C(=C2CCN(CCO)CC2)c2ccsc21", "note": "[Example 2]", "values": [{"measurement": "IC50", "setting": "[1]; [5]", "value": 5.85, "unit": "nM"}, {"measurement": "IC50", "setting": "[2]; [6]", "value": 235, "unit": "nM"}, {"measurement": "Survived", "setting": "[3]", "value": "3/10"}]}
{"smiles": "CN1CCC(=C2c3ccccc3CC(=O)c3sccc32)CC1", "note": "[Ketotifen, ketotifen]", "values": [{"measurement": "Survived", "setting": "[3]", "value": "9/10"}, {"measurement": "sedative activity / sedative side effects", "setting": "[4]", "value": "profound sedative side effects"}]}
{"smiles": "COc1ccc(CCN2CCC(Nc3nc4ccccc4n3Cc3ccc(F)cc3)CC2)cc1", "note": "[Astemizole]", "values": [{"measurement": "Survived", "setting": "[3]", "value": "1/10"}]}
{"smiles": "O=C1Cc2ccccc2C(=C2CCNCC2)c2ccsc21", "note": "[Norketotifen, 4-(4-piperidylidene)-9,10-dihydro-4 H-benzo[4,5]cyclo-hepta[1,2-] thiophene-10-one]", "values": [{"measurement": "IC50", "setting": "[1]", "value": 43.6, "unit": "nM"}, {"measurement": "IC50", "setting": "[2]; [6]", "value": 261, "unit": "nM"}, {"measurement": "Survived", "setting": "[3]", "value": "3/10"}]}
{"smiles": "OC1Cc2ccccc2C(=C2CCNCC2)c2ccsc21", "note": "(stereo not drawn) [10-OH-NORKETOTIFEN, 10-OH-norketotifen]", "values": [{"measurement": "IC50", "setting": "[1]; [5]", "value": 113, "unit": "nM"}]}
